Source: article PMC4814829, “Design, synthesis, crystallization and biological evaluation of new symmetrical biscationic compounds as selective inhibitors of human Choline Kinase α1 (ChoKα1)” (Scientific Reports, 2016)

What was measured:
Jurkat cells [1] = test: Annexin-V/PI assay; type: cell-based, human; conditions: 72 h, positive controls Cis-Pt 50 μM, Etoposide 5 μM
Description: (§1) Surface exposure of PS on apoptotic cells was measured by flow cytometry with Cytomics FC500 (Beckman Coulter) by adding simultaneously annexin-V conjugated to fluorescein isothiocyanate (FITC) and PI to cells according to the manufacturer′s instructions (Annexin-V Fluos, Roche Diagnostic).

MCF-7 cells [2] = test: Annexin-V/PI assay; type: cell-based, human; conditions: MCF-7, 72 h; positive controls Cis-Pt 50 μM, Etoposide 5 μM
Description: as §1

MDA-MB-231 cells [3] = test: Annexin-V/PI assay; type: cell-based, human; conditions: MDA-MB-231, 72 h; positive controls Cis-Pt 50 μM, Etoposide 5 μM
Description: as §1

human ChoKα1 = target: T1, human ChoKα1 (Homo sapiens, UniProt P35790); test: Tryptophan fluorescence quenching; type: binding; conditions: mean ± S.D. of at least three independent experiments; 25 °C, enzyme 1 μM; read-out: HsChoKα1 Kd
T1 construct: made in house
Description: All compounds were prepared in 100% DMSO. Their Kds against human ChoKα1 were measured by monitoring the quenching of tryptophan fluorescence. All experiments were performed in a Cary Eclipse spectrofluorometer (Varian) at 25 °C with the enzymes at 1 μM, and concentrations of compounds varying from 0.1 to 5 μM for ChoKα1 in 25 mM Tris, 150 mM NaCl, pH 7.5. Fluorescence emission spectra were recorded in the 300–400 nm range with an excitation wavelength of 280 nm, with slit width of 5 nm. Controls were determined by incubating the enzymes with equivalent amounts of DMSO. As indicated previously, data analysis was performed in Prism (GraphPad software) considering a model with a single binding site (Eq. 1), where F0 is the intrinsic fluorescence of the enzyme in the absence of quencher (Q), F1 is the observed fluorescence at a given quencher concentration, fa is the fractional degree of fluorescence, and Kd is the dissociation constant.

purified human ChoKα1 = purified human ChoKα1 (Homo sapiens, UniProt P35790); test: Determination of human choline kinase α1 activity ([methyl-14C]choline incorporation into phosphocholine); type: biochemical; conditions: mean ± SEM, three independent experiments; read-out: IC50 ChoKα1 purified
Description: The effect of the different inhibitors on human choline kinase (ChoK) was assayed in ChoKα1 purified as previously described[32]. In each experiment DMSO-assays were always run in parallel as a control. DMSO in no case exceeded a concentration of 0.1% in order to avoid unspecific ChoK inhibition. ChoK activity was assayed by measuring the rate of incorporation of ^14C from [methyl-^14C]choline into phosphocholine both in the presence or absence of different inhibitor concentrations. Briefly, the final reaction mixture contained 100 mM Tris (pH 8.5), 10 mM MgCl2, and 10 mM ATP, and 20 ng of purified ChoKα1. […] The assay was stopped by immersing the reaction tubes in boiling water for 3 min. Aliquots of the reaction mixture were applied to the origin of Silica Gel plates in the presence of phosphocholine (0.1 mg) and choline (0.1 mg) as carriers. The chromatography was developed in methanol/0.6% NaCl/28% NH4OH in water (50:50:5, v/v/v) as solvent. Phosphocholine was visualized under exposure to iodine vapor and the corresponding spot was scraped and transferred to scintillation vials for measurement of radioactivity by a Beckman 6000-TA (Madrid, Spain) liquid-scintillation counter. At least three experiments were performed in all assays.

A549 cells = test: Antiproliferative MTT assay; type: cell-based; conditions: Homo sapiens, 72 h, mean ± SEM
Description: (§2) Human T-cell leukemia (Jurkat), human B-cell leukemia (RS 4,11) and human promyelocytic leukemia (HL-60) cells were grown in RPMI-1640 medium (Gibco, Milan, Italy). Breast adenocarcinoma (MCF-7 and MDA-MB-231), human non-small cell lung carcinoma (A549), human cervix carcinoma (HeLa), human prostate adenocarcinoma (PC-3), and human colon adenocarcinoma (HT-29) cells were grown in DMEM medium (Gibco, Milan, Italy). Both media were supplemented with 115 units/mL of penicillin G (Gibco, Milan, Italy), 115 μg/mL of streptomycin (Invitrogen, Milan, Italy) and 10% fetal bovine serum (Invitrogen, Milan, Italy). Stock solutions (10 mM) of the different compounds were obtained by dissolving them in DMSO. Individual wells of 96-well tissue-culture microtiter plates were inoculated with 100 μL of complete medium containing 8 × 10^3 cells. The plates were incubated at 37 °C in a humidified 5% CO2 incubator for 18 h prior to the experiments. After medium removal, 100 μL of fresh medium containing the test compound at different concentrations was added to each well and incubated at 37 °C for 72 h. The percentage of DMSO in the medium in no case exceeded 0.25%.

HL-60 cells = test: Antiproliferative MTT assay; type: cell-based; conditions: Homo sapiens, 72 h, mean ± SEM
Description: as §2

HT-29 cells = test: Antiproliferative MTT assay; type: cell-based; conditions: Homo sapiens, 72 h, mean ± SEM
Description: as §2

HeLa cells = test: Antiproliferative MTT assay; type: cell-based; conditions: Homo sapiens, 72 h, mean ± SEM
Description: as §2

Jurkat cells [4] = test: Antiproliferative MTT assay; type: cell-based; conditions: Homo sapiens, 72 h, mean ± SEM
Description: as §2

MCF-7 cells [5] = test: Antiproliferative MTT assay; type: cell-based; conditions: Homo sapiens, MCF7, 72 h, mean ± SEM
Description: as §2

MDA-MB-231 cells [6] = test: Antiproliferative MTT assay; type: cell-based; conditions: Homo sapiens, 72 h, mean ± SEM
Description: as §2

PC-3 cells = test: Antiproliferative MTT assay; type: cell-based; conditions: Homo sapiens, 72 h, mean ± SEM
Description: as §2

RS4,11 cells = test: Antiproliferative MTT assay; type: cell-based; conditions: Homo sapiens, 72 h, mean ± SEM
Description: as §2

PBL (+Pha) = test: Antiproliferative assay in non-tumoral cells (MTT); type: cell-based; conditions: Homo sapiens, non-tumoral cells stimulated with phytohematoagglutinin, 72 h, mean ± SEM
Description: (§3) Peripheral mononuclear cells (PBMC) from healthy donors were obtained by separation on Lymphoprep (Fresenius KABI Norge AS) gradient. After extensive washing, cells were resuspended (1 × 10^6 cells/mL) in RPMI-1640 with 10% fetal bovine serum and incubated overnight. For cytotoxicity evaluations in proliferating PBL cultures, non-adherent cells were resuspended at 5 × 10^5 cells/mL in growth medium, containing 2.5 μg/mL PHA (Irvine Scientific). Different concentrations of the test compounds were added, and viability was determined 72 h later by the MTT test. For cytotoxicity evaluations in resting PBL cultures, non-adherent cells were resuspended (5 × 10^5 cells/mL) and treated for 72 h with the test compounds, as described above.

PBL (resting) = test: Antiproliferative assay in non-tumoral cells (MTT); type: cell-based; conditions: Homo sapiens, 72 h, mean ± SEM
Description: as §3

Human fibroblasts = test: Antiproliferative assay in non-tumoral cells; type: cell-based; conditions: Fibroblast, mean ± SEM
Source text: Human fibroblasts from foreskin were isolated as previously described[58] and maintained in DMEM medium with 10% fetal bovine serum added.

HUVEC = test: Antiproliferative assay in non-tumoral cells; type: cell-based; conditions: Homo sapiens, mean ± SEM
Description: Human Umbilical Vein Endothelial cells (HUVEC), were prepared from human umbilical-cord veins, as previously described. The adherent cells were maintained in M200 medium added by LSGS (low serum growth supplement), containing FBS, hydrocortisone, hEGF, bFGF, heparin, gentamycin/amphotericin (Life Technologies, Monza, Italy). Once confluent, the cells were detached by trypsin–EDTA solution and used in experiments from the first to sixth passages.

[7] = Solubility in crystallization mother liquor (crystal soaking); type: physicochemical; conditions: 20% PEG 3350, 0.25 M potassium isothiocyanate, 10% DMSO, compound 50 mM
Description: ChoKα1 at 20 mg/ml in buffer 25 mM Tris/HCl, 150 mM NaCl pH 7.5 was used as the protein solution. The sitting-drop vapor-diffusion method was used to produce apo-crystals by mixing 0.5 μl of the protein solution and an equal volume of mother liquor (crystals appeared in 20% polyethylene glycol [PEG] 3350 and 0.25 M potassium isothiocyanate). Tetragonal crystals (space group P43212) grew within in 3–4 days and were soaked in 2 μL of the mother liquor with 0.2 μL of a dilution 500 mM of compounds 10a, 10g, 10h, 10k, and 10l in DMSO (DMSO was at 10% final concentration in the mix whereas compounds were at 50 mM) for two days. Only crystals soaked with compound 10a contained the compound. The crystals used in this study were cryoprotected in mother-liquor solutions containing 20% ethylenglycol and frozen in a nitrogen gas stream cooled to 100 K.

MDA-MB-231 cells [8] = test: Cell-cycle distribution analysis (PI, flow cytometry); type: cell-based, human; conditions: MDA-MB-231
Description: [The source words this procedure for another cell line and reports this cell line under the same test.] For flow-cytometric analysis of the DNA content, 5 × 10^5 HeLa or Jurkat cells in exponential growth were treated with different concentrations of the test compounds for 24 and 48 h. After the incubation period, the cells were collected, centrifuged, and fixed with ice-cold ethanol (70%). The cells were then treated with lysis buffer containing RNAse A and 0.1% Triton X-100, and then stained with propidium iodide (PI). Samples were analyzed in a Cytomics FC500 flow cytometer (Beckman Coulter). DNA histograms were analyzed using MultiCycle for Windows (Phoenix Flow Systems).

[9] = system: breast- and colon-cancer cells; set-up: method as in earlier work; conditions: 15 μM; ref 15 (Sanchez-Lopez et al.); cited from earlier work
mice = conditions: mouse, in vivo; cited from earlier work

T1 sequence (P35790 whole entry): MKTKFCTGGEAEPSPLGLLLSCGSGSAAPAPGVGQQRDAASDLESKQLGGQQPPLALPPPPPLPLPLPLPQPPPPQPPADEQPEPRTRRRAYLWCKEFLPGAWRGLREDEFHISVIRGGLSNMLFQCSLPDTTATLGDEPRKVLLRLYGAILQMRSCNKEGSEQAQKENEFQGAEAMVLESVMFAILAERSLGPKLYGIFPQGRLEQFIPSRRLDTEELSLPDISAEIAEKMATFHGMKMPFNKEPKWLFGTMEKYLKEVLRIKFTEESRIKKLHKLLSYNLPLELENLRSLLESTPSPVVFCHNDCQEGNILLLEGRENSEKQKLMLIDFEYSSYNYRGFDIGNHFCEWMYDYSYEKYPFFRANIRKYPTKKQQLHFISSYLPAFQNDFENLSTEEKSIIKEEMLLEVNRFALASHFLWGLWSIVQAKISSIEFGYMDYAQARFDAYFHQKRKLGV
purified human ChoKα1, sequence (P35790 whole entry): as above

| Compound | Apoptotic cells (annexin-V/PI) (Jurkat cells [1]) | Apoptotic cells (annexin-V/PI) (MCF-7 cells [2]) | Apoptotic cells (annexin-V/PI) (MDA-MB-231 cells [3]) | Kd (human ChoKα1) [nM] | IC50 (purified human ChoKα1) [nM] | GI50 (A549 cells) [nM] | GI50 (HL-60 cells) [nM] | GI50 (HT-29 cells) [nM] | GI50 (HeLa cells) [nM] | GI50 (Jurkat cells [4]) [nM] | GI50 (MCF-7 cells [5]) [nM] | GI50 (MDA-MB-231 cells [6]) [nM] | GI50 (PC-3 cells) [nM] | GI50 (RS4,11 cells) [nM] | GI50 (PBL (+Pha)) [nM] | GI50 (PBL (resting)) [nM] | GI50 (Human fibroblasts) [nM] | GI50 (HUVEC) [nM] | Cells with hypodiploid DNA content (apoptotic cells by cell-cycle analysis) (MDA-MB-231 cells [8]) | Cell-cycle effect (G1 phase) [9] | further results |
| --- | --- | --- | --- | --- | --- | --- | --- | --- | --- | --- | --- | --- | --- | --- | --- | --- | --- | --- | --- | --- | --- |
| N.N.[Cl][Pt][Cl] [Cis-Pt] | induce significant apoptosis | induce significant apoptosis | induce significant apoptosis |  |  |  |  |  |  |  |  |  |  |  |  |  |  |  |  |  |  |
| CN(c1ccc(Cl)cc1)c1cc[n+](Cc2ccc(OCCOc3ccc(C[n+]4ccc(N(C)c5ccc(Cl)cc5)c5ccccc54)cc3)cc2)c2ccccc12.[Br-].[Br-] [Compound 10g, 1,1′-(((ethane-1,2-diylbis(oxy))bis(4,1-phenylene))bis(methylene))bis(4-((4-chlorophenyl)(methyl)amino)quinolinium) bromide] |  |  |  | 517 ± 99 | 3270 ± 660 | 110 ± 18 | 710 ± 240 | 750 ± 120 | 250 ± 60 | 98 ± 31 | 460 ± 63 | 190 ± 9 | 260 ± 10 | 150 ± 40 | 550 ± 110 | 980 ± 250 | 7400 ± 2400 | 10400 ± 3500 |  |  | melting point: 178 to 180 °C |
| Clc1ccc2c(N3CCCC3)cc[n+](Cc3ccc(OCCOc4ccc(C[n+]5ccc(N6CCCC6)c6ccc(Cl)cc65)cc4)cc3)c2c1.[Br-].[Br-] [Compound 10l, 1,1′-(((ethane-1,2-diylbis(oxy))bis(4,1-phenylene))bis(methylene))bis(7-chloro-4-(pyrrolidin-1-yl)quinolinium) bromide] |  |  |  | 357 ± 39 | 920 ± 10 | 140 ± 60 | 160 ± 70 | 560 ± 210 | 370 ± 180 | 7 ± 3 | 22 ± 7 | 50 ± 20 | 800 ± 200 | 420 ± 140 | 490 ± 150 | 3800 ± 550 | 9600 ± 1300 | 11400 ± 5900 |  |  | Solubility in the mother liquor [7]: insoluble in the mother liquor |
| COc1cc([C@@H]2c3cc4c(cc3[C@@H](O[C@@H]3O[C@@H]5CO[C@@H](C)O[C@H]5[C@H](O)[C@H]3O)[C@H]3COC(=O)[C@H]23)OCO4)cc(OC)c1O [Etoposide] | induce significant apoptosis | induce significant apoptosis | induce significant apoptosis |  |  |  |  |  |  |  |  |  |  |  |  |  |  |  |  |  |  |
| CN(C)c1cc[n+](Cc2ccc(CCCCc3ccc(C[n+]4ccc(N(C)C)cc4)cc3)cc2)cc1 [MN58b, reference compound] |  |  |  |  |  | 540 ± 200 | 320 ± 30 | 1900 ± 400 | 1900 ± 100 | 350 ± 100 | 1800 ± 60 | 310 ± 120 |  | 1000 ± 300 | 150 ± 50 | 2000 ± 400 |  | 2100 ± 580 | negligible percentage of apoptotic cells | significant decrease of the G1 phase |  |
| CN(c1ccc(Cl)cc1)c1cc[n+](Cc2ccc(-c3ccc(C[n+]4ccc(N(C)c5ccc(Cl)cc5)c5ccccc54)cc3)cc2)c2ccccc12 [RSM932A, reference compound] |  |  |  |  |  | 450 ± 90 | 930 ± 100 | 400 ± 200 | 830 ± 100 | 410 ± 100 | 180 ± 100 | 170 ± 50 |  | 170 ± 40 | 230 ± 50 | 1100 ± 90 |  | 460 ± 47 | negligible percentage of apoptotic cells | significant decrease of the G1 phase | Toxicity profile and tolerability (mice): low-toxicity profile with improved tolerability |
